Laboratory results: publication PMC7347136 (PLoS ONE, 2020)

What was measured:
Test in all cases: Carna kinase panel screen
Type in all cases: biochemical
Details in all cases: read-out: % Inhibition ± SD
[1] = biological target: T1, LOK (Homo sapiens, UniProt O94804)
T1 construct: purchased Carna Biosciences
Protocol: (§1) IC50 values were determined from a 10-point concentration curve using ATP concentrations approximating Km values. […] The percentage inhibition of each test solution was calculated, which allowed the IC50 value to be determined from concentration versus percentage inhibition curves by fitting to a four parameter logistic curve.

[2] = biological target: T2, MAP2K5 (Homo sapiens, UniProt Q13163)
T2 construct: purchased Carna Biosciences
Protocol: as §1

[3] = biological target: T3, MAP2K7 (Homo sapiens, UniProt O14733)
T3 construct: purchased Carna Biosciences
T3 sequence (O14733 whole entry): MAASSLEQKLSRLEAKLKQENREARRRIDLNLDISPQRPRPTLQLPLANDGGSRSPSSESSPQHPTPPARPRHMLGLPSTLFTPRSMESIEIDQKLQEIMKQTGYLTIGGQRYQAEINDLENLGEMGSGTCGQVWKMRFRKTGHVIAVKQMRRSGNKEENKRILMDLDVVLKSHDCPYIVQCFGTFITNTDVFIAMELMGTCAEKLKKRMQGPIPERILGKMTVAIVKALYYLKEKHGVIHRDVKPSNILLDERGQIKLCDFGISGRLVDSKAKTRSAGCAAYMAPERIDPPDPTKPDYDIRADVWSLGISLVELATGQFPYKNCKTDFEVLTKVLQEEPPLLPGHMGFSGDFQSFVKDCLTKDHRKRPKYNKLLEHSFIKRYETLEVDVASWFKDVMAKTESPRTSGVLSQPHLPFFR
Protocol: as §1

[4] = biological target: T4, IKKa (Homo sapiens, UniProt O15111)
T4 construct: purchased Carna Biosciences
T4 sequence (O15111 whole entry): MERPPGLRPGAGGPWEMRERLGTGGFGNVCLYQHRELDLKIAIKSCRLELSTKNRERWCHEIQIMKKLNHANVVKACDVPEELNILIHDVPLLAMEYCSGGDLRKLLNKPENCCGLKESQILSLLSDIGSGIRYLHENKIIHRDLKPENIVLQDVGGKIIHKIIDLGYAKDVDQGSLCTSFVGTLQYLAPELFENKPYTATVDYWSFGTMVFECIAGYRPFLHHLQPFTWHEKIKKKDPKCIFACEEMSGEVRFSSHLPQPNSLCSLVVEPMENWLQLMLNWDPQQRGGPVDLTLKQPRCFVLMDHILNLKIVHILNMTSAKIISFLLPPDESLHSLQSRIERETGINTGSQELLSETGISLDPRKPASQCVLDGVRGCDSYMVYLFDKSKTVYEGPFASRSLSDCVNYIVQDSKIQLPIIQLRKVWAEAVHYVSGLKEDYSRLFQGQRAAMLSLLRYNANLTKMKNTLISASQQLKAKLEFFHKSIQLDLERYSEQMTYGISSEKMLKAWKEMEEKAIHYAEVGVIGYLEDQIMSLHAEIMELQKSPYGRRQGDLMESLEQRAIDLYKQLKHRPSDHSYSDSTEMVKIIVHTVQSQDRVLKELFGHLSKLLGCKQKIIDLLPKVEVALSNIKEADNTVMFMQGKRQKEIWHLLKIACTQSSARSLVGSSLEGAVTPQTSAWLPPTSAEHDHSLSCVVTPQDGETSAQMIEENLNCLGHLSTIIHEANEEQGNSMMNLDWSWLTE
Protocol: as §1

[5] = biological target: T5, KIT[V560G] (Homo sapiens, UniProt P10721, V560G)
T5 construct: purchased Carna Biosciences
Protocol: as §1

[6] = biological target: T6, IKKe (Homo sapiens, UniProt Q14164)
T6 construct: purchased Carna Biosciences
Protocol: as §1

[7] = biological target: T7, PLK3 (Homo sapiens, UniProt Q9H4B4)
T7 construct: purchased Carna Biosciences
Protocol: as §1

[8] = biological target: T8, DDR2 (Homo sapiens, UniProt Q16832)
T8 construct: purchased Carna Biosciences
Protocol: as §1

[9] = biological target: T9, DYRK3 (Homo sapiens, UniProt O43781)
T9 construct: purchased Carna Biosciences
Protocol: as §1

[10] = biological target: T10, TTK (Homo sapiens, UniProt P33981)
T10 construct: purchased Carna Biosciences
Protocol: as §1

[11] = biological target: T11, EEF2K (Homo sapiens, UniProt O00418)
T11 construct: purchased Carna Biosciences
Protocol: as §1

[12] = biological target: T12, MAP2K3 (Homo sapiens, UniProt P46734)
T12 construct: purchased Carna Biosciences
Protocol: as §1

[13] = biological target: T13, FGFR3[K650M] (Homo sapiens, UniProt P22607, K650M)
T13 construct: purchased Carna Biosciences
Protocol: as §1

[14] = biological target: T14, JAK2 (Homo sapiens, UniProt O60674)
T14 construct: purchased Carna Biosciences
Protocol: as §1

[15] = biological target: T15, PIM1 (Homo sapiens, UniProt P11309)
T15 construct: purchased Carna Biosciences
Protocol: as §1

[16] = biological target: T16, PLK2 (Homo sapiens, UniProt Q9NYY3)
T16 construct: purchased Carna Biosciences
T16 sequence (Q9NYY3 whole entry): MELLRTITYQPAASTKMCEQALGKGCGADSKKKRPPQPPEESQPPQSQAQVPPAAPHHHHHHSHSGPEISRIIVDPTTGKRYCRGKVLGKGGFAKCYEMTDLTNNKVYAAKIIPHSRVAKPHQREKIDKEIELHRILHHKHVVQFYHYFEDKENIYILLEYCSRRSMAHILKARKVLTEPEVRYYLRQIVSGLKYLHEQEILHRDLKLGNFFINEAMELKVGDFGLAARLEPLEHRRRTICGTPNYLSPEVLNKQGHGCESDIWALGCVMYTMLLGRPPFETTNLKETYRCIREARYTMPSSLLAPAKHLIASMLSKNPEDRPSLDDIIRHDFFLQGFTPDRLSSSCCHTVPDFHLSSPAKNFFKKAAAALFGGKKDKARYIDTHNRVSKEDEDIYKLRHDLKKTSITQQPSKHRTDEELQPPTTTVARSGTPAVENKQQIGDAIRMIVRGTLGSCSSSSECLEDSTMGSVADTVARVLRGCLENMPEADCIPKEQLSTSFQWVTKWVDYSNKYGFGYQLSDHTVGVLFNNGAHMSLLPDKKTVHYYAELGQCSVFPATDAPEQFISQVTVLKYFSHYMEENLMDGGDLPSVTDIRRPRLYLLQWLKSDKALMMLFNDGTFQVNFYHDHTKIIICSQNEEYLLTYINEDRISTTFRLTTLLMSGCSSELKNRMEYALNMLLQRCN
Protocol: as §1

[17] = biological target: T17, COT (Homo sapiens, UniProt P41279)
T17 construct: purchased Carna Biosciences
Protocol: as §1

[18] = biological target: T18, WNK1 (Homo sapiens, UniProt Q9H4A3)
T18 construct: purchased Carna Biosciences
Protocol: as §1

[19] = biological target: T19, PKCa (Homo sapiens, UniProt P17252)
T19 construct: purchased Carna Biosciences
Protocol: as §1

[20] = biological target: T20, AMPKa1 (Homo sapiens, UniProt Q13131)
T20 construct: purchased Carna Biosciences
Protocol: as §1

[21] = biological target: T21, FER (Homo sapiens, UniProt P16591)
T21 construct: purchased Carna Biosciences
Protocol: as §1

[22] = biological target: T22, NuaK1 (Homo sapiens, UniProt O60285)
T22 construct: purchased Carna Biosciences
Protocol: as §1

[23] = biological target: T23, RSK1 (Homo sapiens, UniProt Q15418)
T23 construct: purchased Carna Biosciences
T23 sequence (Q15418 whole entry): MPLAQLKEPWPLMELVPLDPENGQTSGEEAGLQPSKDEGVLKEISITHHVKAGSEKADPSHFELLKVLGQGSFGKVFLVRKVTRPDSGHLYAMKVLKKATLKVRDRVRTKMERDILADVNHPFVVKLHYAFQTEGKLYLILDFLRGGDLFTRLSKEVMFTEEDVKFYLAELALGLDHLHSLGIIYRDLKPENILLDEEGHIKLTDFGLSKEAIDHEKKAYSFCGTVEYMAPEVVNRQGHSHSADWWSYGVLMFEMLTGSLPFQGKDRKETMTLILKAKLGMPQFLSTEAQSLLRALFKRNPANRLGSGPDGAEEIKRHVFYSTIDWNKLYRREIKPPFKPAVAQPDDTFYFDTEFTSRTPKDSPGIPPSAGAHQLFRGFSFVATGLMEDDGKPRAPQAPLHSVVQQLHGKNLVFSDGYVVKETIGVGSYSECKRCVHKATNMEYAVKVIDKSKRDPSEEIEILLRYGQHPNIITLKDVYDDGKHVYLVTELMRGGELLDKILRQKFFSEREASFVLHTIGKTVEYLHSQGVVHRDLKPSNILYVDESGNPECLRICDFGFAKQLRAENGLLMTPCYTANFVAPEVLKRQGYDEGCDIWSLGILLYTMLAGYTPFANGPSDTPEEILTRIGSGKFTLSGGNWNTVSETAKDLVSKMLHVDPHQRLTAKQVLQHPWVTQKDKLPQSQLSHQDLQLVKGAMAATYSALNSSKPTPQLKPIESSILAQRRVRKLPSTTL
Protocol: as §1

[24] = biological target: T24, LTK (Homo sapiens, UniProt P29376)
T24 construct: purchased Carna Biosciences
Protocol: as §1

[25] = biological target: T25, HER4 (Homo sapiens, UniProt Q15303)
T25 construct: purchased Carna Biosciences
T25 sequence (Q15303 26-1308): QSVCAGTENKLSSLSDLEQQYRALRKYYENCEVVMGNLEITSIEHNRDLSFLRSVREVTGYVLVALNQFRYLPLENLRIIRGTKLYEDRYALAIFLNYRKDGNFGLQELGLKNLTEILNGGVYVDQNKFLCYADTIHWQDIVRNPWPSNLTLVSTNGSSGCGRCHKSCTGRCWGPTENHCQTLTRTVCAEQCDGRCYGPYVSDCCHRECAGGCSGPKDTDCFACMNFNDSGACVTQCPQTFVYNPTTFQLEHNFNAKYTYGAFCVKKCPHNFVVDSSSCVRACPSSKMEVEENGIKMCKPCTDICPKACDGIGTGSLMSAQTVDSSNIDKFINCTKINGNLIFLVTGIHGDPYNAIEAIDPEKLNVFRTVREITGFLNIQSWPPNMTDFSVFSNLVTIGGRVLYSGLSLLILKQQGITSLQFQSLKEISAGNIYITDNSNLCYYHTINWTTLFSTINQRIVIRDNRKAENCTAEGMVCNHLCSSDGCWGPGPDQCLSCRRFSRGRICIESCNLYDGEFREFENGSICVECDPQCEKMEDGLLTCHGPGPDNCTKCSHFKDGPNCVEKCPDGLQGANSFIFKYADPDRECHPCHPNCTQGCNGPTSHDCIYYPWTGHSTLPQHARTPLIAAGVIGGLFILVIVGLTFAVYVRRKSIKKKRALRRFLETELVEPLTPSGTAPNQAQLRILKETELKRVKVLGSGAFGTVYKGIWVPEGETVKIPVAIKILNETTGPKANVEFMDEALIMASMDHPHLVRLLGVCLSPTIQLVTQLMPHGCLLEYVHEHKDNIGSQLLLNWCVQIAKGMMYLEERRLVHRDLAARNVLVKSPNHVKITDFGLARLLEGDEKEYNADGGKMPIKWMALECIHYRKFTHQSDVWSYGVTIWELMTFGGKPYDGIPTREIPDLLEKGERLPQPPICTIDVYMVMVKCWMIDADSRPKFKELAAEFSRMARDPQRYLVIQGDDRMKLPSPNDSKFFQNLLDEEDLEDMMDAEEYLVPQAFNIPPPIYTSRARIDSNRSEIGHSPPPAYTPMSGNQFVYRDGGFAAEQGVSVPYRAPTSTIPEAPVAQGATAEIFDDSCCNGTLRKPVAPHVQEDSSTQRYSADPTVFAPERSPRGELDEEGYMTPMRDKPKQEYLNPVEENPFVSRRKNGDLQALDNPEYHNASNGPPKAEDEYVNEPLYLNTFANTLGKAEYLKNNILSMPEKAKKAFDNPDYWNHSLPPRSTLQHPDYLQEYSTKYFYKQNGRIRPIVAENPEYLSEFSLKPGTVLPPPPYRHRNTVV
Protocol: as §1

[26] = biological target: T26, ABL (Homo sapiens, UniProt P00519)
T26 construct: purchased Carna Biosciences
T26 sequence (P00519 whole entry): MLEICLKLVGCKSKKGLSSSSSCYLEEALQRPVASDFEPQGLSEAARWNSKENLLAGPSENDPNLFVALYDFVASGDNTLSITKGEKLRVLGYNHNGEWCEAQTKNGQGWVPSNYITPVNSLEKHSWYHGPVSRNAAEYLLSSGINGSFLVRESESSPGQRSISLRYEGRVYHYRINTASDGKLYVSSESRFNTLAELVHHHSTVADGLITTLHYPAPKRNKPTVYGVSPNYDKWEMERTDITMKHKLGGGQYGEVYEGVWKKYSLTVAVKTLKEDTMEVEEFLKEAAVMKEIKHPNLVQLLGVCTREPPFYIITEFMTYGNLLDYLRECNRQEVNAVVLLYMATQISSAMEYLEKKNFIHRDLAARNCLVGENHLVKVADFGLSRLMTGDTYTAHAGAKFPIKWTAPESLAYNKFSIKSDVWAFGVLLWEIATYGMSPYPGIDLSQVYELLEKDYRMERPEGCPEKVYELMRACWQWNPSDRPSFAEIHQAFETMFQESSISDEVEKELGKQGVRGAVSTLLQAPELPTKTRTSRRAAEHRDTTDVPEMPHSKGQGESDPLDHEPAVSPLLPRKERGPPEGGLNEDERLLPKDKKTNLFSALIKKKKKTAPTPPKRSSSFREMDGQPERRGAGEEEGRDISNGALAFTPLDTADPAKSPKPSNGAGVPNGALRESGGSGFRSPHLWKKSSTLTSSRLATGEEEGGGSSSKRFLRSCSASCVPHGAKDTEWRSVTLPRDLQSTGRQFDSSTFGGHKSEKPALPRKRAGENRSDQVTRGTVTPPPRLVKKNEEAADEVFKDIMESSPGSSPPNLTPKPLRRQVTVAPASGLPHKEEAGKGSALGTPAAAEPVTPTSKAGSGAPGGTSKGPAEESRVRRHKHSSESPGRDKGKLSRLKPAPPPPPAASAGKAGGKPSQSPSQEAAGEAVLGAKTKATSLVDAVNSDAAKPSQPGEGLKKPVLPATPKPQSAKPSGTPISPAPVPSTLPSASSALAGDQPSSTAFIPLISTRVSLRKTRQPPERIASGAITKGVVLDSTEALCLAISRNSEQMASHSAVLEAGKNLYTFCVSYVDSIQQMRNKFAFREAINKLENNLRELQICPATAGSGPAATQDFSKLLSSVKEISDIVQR
Protocol: as §1

[27] = biological target: T27, PHKG2 (Homo sapiens, UniProt P15735)
T27 construct: purchased Carna Biosciences
Protocol: as §1

[28] = biological target: T28, PKCi (Homo sapiens, UniProt P41743)
T28 construct: purchased Carna Biosciences
Protocol: as §1

[29] = biological target: T29, BTK (Homo sapiens, UniProt Q06187)
T29 construct: purchased Carna Biosciences
Protocol: as §1

[30] = biological target: T30, LYNa (Homo sapiens, UniProt P07948)
T30 construct: purchased Carna Biosciences
Protocol: as §1

[31] = biological target: T31, PDGFRa[T674I] (Homo sapiens, UniProt P16234, T674I)
T31 construct: purchased Carna Biosciences
Protocol: as §1

[32] = biological target: T32, FMS (Homo sapiens, UniProt P07333)
T32 construct: purchased Carna Biosciences
Protocol: as §1

[33] = biological target: T33, AMPKa2 (Homo sapiens, UniProt P54646)
T33 construct: purchased Carna Biosciences
Protocol: as §1

[34] = biological target: T34, CDK3 (Homo sapiens, UniProt Q00526)
T34 construct: purchased Carna Biosciences
Protocol: as §1

[35] = biological target: T35, FGFR1 (Homo sapiens, UniProt P11362)
T35 construct: purchased Carna Biosciences
Protocol: as §1

[36] = biological target: T36, EphA2 (Homo sapiens, UniProt P29317)
T36 construct: purchased Carna Biosciences
Protocol: as §1

[37] = biological target: T37, FGFR2 (Homo sapiens, UniProt P21802)
T37 construct: purchased Carna Biosciences
Protocol: as §1

[38] = biological target: T38, JAK3 (Homo sapiens, UniProt P52333)
T38 construct: purchased Carna Biosciences
Protocol: as §1

[39] = biological target: T39, JNK3 (Homo sapiens, UniProt P53779)
T39 construct: purchased Carna Biosciences
Protocol: as §1

[40] = biological target: T40, PASK (Homo sapiens, UniProt Q96RG2)
T40 construct: purchased Carna Biosciences
Protocol: as §1

[41] = biological target: T41, CaMK2g (Homo sapiens, UniProt Q13555)
T41 construct: purchased Carna Biosciences
Protocol: as §1

[42] = biological target: T42, BMX (Homo sapiens, UniProt P51813)
T42 construct: purchased Carna Biosciences
Protocol: as §1

[43] = biological target: T43, TNK1 (Homo sapiens, UniProt Q13470)
T43 construct: purchased Carna Biosciences
Protocol: as §1

CC[C@H](Nc1nc(NCc2cnc(C)cc2C)c2ncn(C(C)C)c2n1)[C@@H](C)O [Fadraciclib, 2-pentanol, 3-[[6-[[(4,6-dimethyl-3-pyridinyl)methyl]amino]-9-(1-methylethyl)-9Hpurin-2-yl]amino]-, (2R,3S)]
inhibition at 1 µM [1]: -23.8 ± 0.3% | inhibition at 1 µM [2]: 11.9 ± 1.6% | inhibition at 1 µM [3]: -10.6 ± 0.6% | inhibition at 1 µM [4]: 0% | inhibition at 1 µM [5]: 2.5 ± 0.1% | inhibition at 1 µM [6]: 2.5 ± 0.1% | inhibition at 1 µM [7]: 5.7 ± 0.3% | inhibition at 1 µM [8]: -9.9 ± 0.1% | inhibition at 1 µM [9]: 0.9% | inhibition at 1 µM [10]: 25.3 ± 4.5% | inhibition at 1 µM [11]: -10.3 ± 0.2% | inhibition at 1 µM [12]: -12.3 ± 0.3% | inhibition at 1 µM [13]: 3.2 ± 0.1% | inhibition at 1 µM [14]: 6.1 ± 0.2% | inhibition at 1 µM [15]: 7.4 ± 0.1% | inhibition at 1 µM [16]: 1% | inhibition at 1 µM [17]: -15.6 ± 0.4% | inhibition at 1 µM [18]: -3.3% | inhibition at 1 µM [19]: 17.8 ± 0.5% | inhibition at 1 µM [20]: -3.8% | inhibition at 1 µM [21]: -0.3% | inhibition at 1 µM [22]: -2.5% | inhibition at 1 µM [23]: 5.1% | inhibition at 1 µM [24]: 6.6 ± 0.1% | inhibition at 1 µM [25]: -13 ± 0.3% | inhibition at 1 µM [26]: -12.7 ± 0.3% | inhibition at 1 µM [27]: -10 ± 0.1% | inhibition at 1 µM [28]: -13.6 ± 0.5% | inhibition at 1 µM [29]: 5.3 ± 0.4% | inhibition at 1 µM [30]: 2.2 ± 0.1% | inhibition at 1 µM [31]: -11.4 ± 0.2% | inhibition at 1 µM [32]: -6.3 ± 0.1% | inhibition at 1 µM [33]: -12.8 ± 0.7% | inhibition at 1 µM [34]: 95.9% | inhibition at 1 µM [35]: 7.8% | inhibition at 1 µM [36]: 3.8% | inhibition at 1 µM [37]: -17.6 ± 2.2% | inhibition at 1 µM [38]: -9.5% | inhibition at 1 µM [39]: 10.6 ± 0.6% | inhibition at 1 µM [40]: -0.4% | inhibition at 1 µM [41]: 12.5 ± 0.4% | inhibition at 1 µM [42]: 6.6 ± 0.3% | inhibition at 1 µM [43]: -0.2 ± 0.2%
